pIC50: −log10 of the molar value. Read-outs that look alike come from different tables or passages of the source.

In one assay the target is T1, rat CB1 receptors (Rattus norvegicus, UniProt P20272).
T1 construct: cerebella from male Wistar rats (250-300g) were carefully dissected on ice and homogenates were prepared; from tissue; host or cells: rat cerebellum (male Wistar) membrane homogenate
The assay can be described thus: Affinity for rat CB1 receptors: competitive binding of [3H]-CP 55,940 to rat cerebellum membranes. The note with it: 1 nM [3H]-CP 55,940, rat cerebellum membranes, 1 hour at 30°C. The procedure: Binding affinity to CB1 receptor was evaluated according to the method of Govaerts et al (2004) with the following modifications Briefly, cerebella from male Wistar rats (250-300g) were carefully dissected on ice and homogenates were prepared in cold 50 mM Tris-HCl, 5 mM MgCl2, 1 mM EDTA, 0.25 M sucrose, pH 7.4 with a Potter-Heljheim homogenizer and the suspension was centrifuged at 1,000 x g for 5 minutes. The supernatants were collected and centrifuged 50,000 x g for 15 min. The resulting pellets were resuspended in Tris-HCl buffer without sucrose, homogenized and incubated for 15 min at 37°C in an orbital shaker bath and centrifuged again at 50,000 x g for 15 min. Pellets were weighed, resuspended in Tris-HCl buffer without sucrose, homogenized with an Ultraturrax at 13,500 rpm for 3 x 5 seconds and aliquoted in 0.9 ml volumes in Eppendorf tubes. Aliquots were centrifuged at 20,800 x g for 5 minutes, supernatants discarded and pellets were frozen at -80°C until use. Total protein concentration was determined using a Bio-Rad commercial assay base on the Lowry method. […]
Binding data were analyzed by non-linear regression with the software GraphPad Prism Version 3.03.

The conditions of assay [1]: Figure 5; cited from earlier work.
For assay [2] the following is noted: Figure 4; cited from earlier work.

T1 sequence (P20272 whole entry): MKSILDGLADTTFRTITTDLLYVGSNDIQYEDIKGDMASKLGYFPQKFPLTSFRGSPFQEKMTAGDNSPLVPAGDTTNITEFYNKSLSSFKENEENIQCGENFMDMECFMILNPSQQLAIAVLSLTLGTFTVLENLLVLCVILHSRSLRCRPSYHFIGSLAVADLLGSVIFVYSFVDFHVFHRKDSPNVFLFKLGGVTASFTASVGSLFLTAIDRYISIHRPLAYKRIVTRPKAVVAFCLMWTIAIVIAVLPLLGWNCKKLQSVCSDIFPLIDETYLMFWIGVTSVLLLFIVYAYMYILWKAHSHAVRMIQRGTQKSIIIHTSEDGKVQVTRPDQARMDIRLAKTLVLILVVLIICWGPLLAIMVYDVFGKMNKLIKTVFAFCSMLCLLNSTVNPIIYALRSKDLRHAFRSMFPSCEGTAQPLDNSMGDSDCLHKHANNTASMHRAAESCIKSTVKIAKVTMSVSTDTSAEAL

As a reminder, the pIC50 is −log10 of the IC50, conventionally taken in molar units. For the compound `O=C(NN1CCCCC1)C1=NN(c2ccc(Cl)cc2Cl)C(c2ccc(Cl)cc2)C1` (stereo not shown) [Subgroup A1, Chemical example 1], the pIC50 on rat CB1 receptors (read-out: IC50) is 7.59. Moreover, on rat CB1 receptors (read-out: pIC50 (converted)), the IC50 was 22.4 nM. As for `Cc1c(C(=O)NN2CCCCC2)nn(-c2ccc(Cl)cc2Cl)c1-c1ccc(Cl)cc1` [rimonabant], the “ability to prevent antipsychotic-induced weight-gain” value in assay [1] is reported as “only partially effective”. For the compound `CC(C)CC(N(C)C)C1(c2ccc(Cl)cc2)CCC1` (stereo not shown) [sibutramine], the “prevention of antipsychotic-induced weight-gain” value in assay [2] is “Partial prevention of antipsychotic-induced weight-gain”.

Values taken from patent EP1946777A1, “Substituted pyrazoline for preventing weight gain” (Laboratorios del Dr. Esteve S.A., priority 2007, dated 2008).
